system: Human immunodeficiency virus 1; assay: Antiviral activity against HIV1 Y188L mutant; format: functional, organism-based; details: not given

Structure (SMILES)	EC50 [nM]
O=C1Nc2ccc(Cl)cc2C(C#CC2CC2)(C(F)(F)F)O1 (single isomer, unassigned) [EFAVIRENZ]	280
Cc1ccnc2c1NC(=O)c1cccnc1N2C1CC1 [NEVIRAPINE]	> 10000

system: Human immunodeficiency virus 1; assay: Antiviral activity against HIV1 I135V mutant; format: functional, organism-based; details: not given

Structure (SMILES)	EC50 [nM]
O=C1Nc2ccc(Cl)cc2C(C#CC2CC2)(C(F)(F)F)O1 (single isomer, unassigned) [EFAVIRENZ]	1
Cc1ccnc2c1NC(=O)c1cccnc1N2C1CC1 [NEVIRAPINE]	79

system: Human immunodeficiency virus 1; assay: Antiviral activity against HIV1 F227L mutant; format: functional, organism-based; details: not given

Structure (SMILES)	EC50 [nM]
O=C1Nc2ccc(Cl)cc2C(C#CC2CC2)(C(F)(F)F)O1 (single isomer, unassigned) [EFAVIRENZ]	1
Cc1ccnc2c1NC(=O)c1cccnc1N2C1CC1 [NEVIRAPINE]	148

system: Human immunodeficiency virus 1; assay: Antiviral activity against HIV1 V106A mutant; format: functional, organism-based; details: not given

Structure (SMILES)	EC50 [nM]
O=C1Nc2ccc(Cl)cc2C(C#CC2CC2)(C(F)(F)F)O1 (single isomer, unassigned) [EFAVIRENZ]	4
Cc1ccnc2c1NC(=O)c1cccnc1N2C1CC1 [NEVIRAPINE]	8460

system: Human immunodeficiency virus 1; assay: Antiviral activity against HIV1 V179E mutant; format: functional, organism-based; details: not given

Structure (SMILES)	EC50 [nM]
O=C1Nc2ccc(Cl)cc2C(C#CC2CC2)(C(F)(F)F)O1 (single isomer, unassigned) [EFAVIRENZ]	6
Cc1ccnc2c1NC(=O)c1cccnc1N2C1CC1 [NEVIRAPINE]	116

system: Human immunodeficiency virus 1; assay: Antiviral activity against HIV1 E138K mutant; format: functional, organism-based; details: not given

Structure (SMILES)	EC50 [nM]
O=C1Nc2ccc(Cl)cc2C(C#CC2CC2)(C(F)(F)F)O1 (single isomer, unassigned) [EFAVIRENZ]	2
Cc1ccnc2c1NC(=O)c1cccnc1N2C1CC1 [NEVIRAPINE]	31

system: HEK293; assay: Cytotoxicity against HEK293T cells; format: functional; details: Homo sapiens

Structure (SMILES)	CC50 [nM]
CCCCC12CC1(C(=O)Nc1ccc(C(=O)O)cc1)C(=O)Nc1ccc(Cl)cc12 (stereo unspecified)	> 10000
CCCCC12CC1(C(=O)Nc1ccncc1)C(=O)Nc1ccc(Cl)cc12 (stereo unspecified)	> 10000
CCCCC12CC1(CO)C(=O)Nc1ccc(Cl)cc12 (stereo unspecified)	> 10000
CCCCC1(C)c2cc(Cl)ccc2NC(=O)C1C(=O)OCC (stereo unspecified)	> 10000
CCCCC12CC1(C(=O)N(C)CC)C(=O)Nc1ccc(Cl)cc12 (stereo unspecified)	> 10000
CCOC(=O)C12CC1(C(C)C)c1cc(Cl)ccc1NC2=O (stereo unspecified)	> 10000
CCCCC(=O)C12CC1(CCCC)c1cc(Cl)ccc1NC2=O (stereo unspecified)	> 10000
CCCCC12CC1(C(=O)NCCC(=O)O)C(=O)Nc1ccc(Cl)cc12 (stereo unspecified)	> 10000
CCCCC12CC1(C(=O)Nc1ccc(C(N)=O)cc1)C(=O)Nc1ccc(Cl)cc12 (stereo unspecified)	> 10000
CCCCC12CC1(C(=O)Nc1cccc(C#N)c1)C(=O)Nc1ccc(Cl)cc12 (stereo unspecified)	> 10000
CCOC(=O)C12CC1(CCc1ccccc1)c1cc(Cl)ccc1NC2=O (stereo unspecified)	> 10000
O=C1Nc2ccc(Cl)cc2C(C#CC2CC2)(C(F)(F)F)O1 (single isomer, unassigned) [EFAVIRENZ]	> 10000
Cc1ccnc2c1NC(=O)c1cccnc1N2C1CC1 [NEVIRAPINE]	> 10000

system: Human immunodeficiency virus 1; assay: Antiviral activity against HIV1; format: functional, organism-based; details: not given

Structure (SMILES)	EC50 [nM]
CCOC(=O)C12CC1(C(C)C)c1cc(Cl)ccc1NC2=O (stereo unspecified)	> 10000
CCCCC(=O)C12CC1(CCCC)c1cc(Cl)ccc1NC2=O (stereo unspecified)	6300
CCOC(=O)C12CC1(CCc1ccccc1)c1cc(Cl)ccc1NC2=O (stereo unspecified)	221

More lines, now with the values ahead:

EC50 [nM]	Structure (SMILES)
> 10000	CCCCC12CC1(C(=O)Nc1ccc(C(=O)O)cc1)C(=O)Nc1ccc(Cl)cc12 (stereo unspecified)
8260	CCCCC12CC1(C(=O)Nc1ccncc1)C(=O)Nc1ccc(Cl)cc12 (stereo unspecified)
743	CCCCC12CC1(CO)C(=O)Nc1ccc(Cl)cc12 (stereo unspecified)
1400	CCCCC1(C)c2cc(Cl)ccc2NC(=O)C1C(=O)OCC (stereo unspecified)
> 10000	CCCCC12CC1(C(=O)N(C)CC)C(=O)Nc1ccc(Cl)cc12 (stereo unspecified)
> 10000	CCCCC12CC1(C(=O)NCCC(=O)O)C(=O)Nc1ccc(Cl)cc12 (stereo unspecified)
4550	CCCCC12CC1(C(=O)Nc1ccc(C(N)=O)cc1)C(=O)Nc1ccc(Cl)cc12 (stereo unspecified)
160	CCCCC12CC1(C(=O)Nc1cccc(C#N)c1)C(=O)Nc1ccc(Cl)cc12 (stereo unspecified)

system: Human immunodeficiency virus 1; assay: Antiviral activity against HIV1 Y181C mutant; format: functional, organism-based; details: not given

Structure (SMILES)	EC50 [nM]
Cc1ccnc2c1NC(=O)c1cccnc1N2C1CC1 [NEVIRAPINE]	> 10000

system: Human immunodeficiency virus 1; assay: Antiviral activity against HIV1 Y181H mutant; format: functional, organism-based; details: not given

Structure (SMILES)	EC50 [nM]
O=C1Nc2ccc(Cl)cc2C(C#CC2CC2)(C(F)(F)F)O1 (single isomer, unassigned) [EFAVIRENZ]	2
Cc1ccnc2c1NC(=O)c1cccnc1N2C1CC1 [NEVIRAPINE]	112

system: Human immunodeficiency virus 1; assay: Antiviral activity against HIV1 Y181S mutant; format: functional, organism-based; details: not given

Structure (SMILES)	EC50 [nM]
O=C1Nc2ccc(Cl)cc2C(C#CC2CC2)(C(F)(F)F)O1 (single isomer, unassigned) [EFAVIRENZ]	1
Cc1ccnc2c1NC(=O)c1cccnc1N2C1CC1 [NEVIRAPINE]	3000
